Consider 19 molecules from patent US20070037253A1, “Methods and compositions for treatment of arthritis and cancer” (priority 2003, published 2007).

Type in all cases: biochemical
Assay [1] deals with T1, human recombinant MMP-1 (Homo sapiens, UniProt P03956).
T1 construct: human recombinant MMP-1 catalytic domain in each well (15.3 U, 20 μL); purchased BIOMOL AK-404
T1 sequence (P03956 100-269 limits assumed): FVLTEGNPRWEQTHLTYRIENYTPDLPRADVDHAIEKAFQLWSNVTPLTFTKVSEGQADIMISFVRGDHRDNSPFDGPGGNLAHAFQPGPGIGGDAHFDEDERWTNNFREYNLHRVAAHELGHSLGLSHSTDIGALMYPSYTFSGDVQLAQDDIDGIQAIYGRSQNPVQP
Briefly: MMP-1 colorimetric assay (BIOMOL AK-404 QuantiZyme). The protocol:
FIG. 3 illustrates the results of an assay on inhibition of human recombinant MMP-1 enzyme activity by various peptide mutants. (A) MMP-1 Activity Curves: The reaction velocity (V) was determined from the slope of the OD versus time (min) plot for each test inhibitor using the linear regression analysis. (∘), Human recombinant MMP-1 purified enzyme; (□), NNGH standard positive control MMP-1 selective inhibitor; (▾), P-NT.II; (▴), D60,65E dimer; (•), PIP [57-67] dimer; (▪), PIP [59-67] dimer. (B) MMP-1 Activity Inhibition Curves: Inhibition curves of various peptide mutants against the human MMP-1 activity. Results are expressed as the mean±SD (n=3).
Inhibition of MMP-1 enzymatic activity: Enzyme inhibition by peptide analogues was assessed by using MMP-1 Colorimetric assay kit for drug discovery (BIOMOL AK-404 QuantiZyme Assay system). Briefly, human recombinant MMP-1 catalytic domain in each well (15.3 U, 20 μL) was allowed to react either with the candidate peptide (test inhibitor) dissolved in DMSO (final 0.5% DMSO in assay buffer), or with the assay buffer alone (control) for 30 min at 37° C. Immediately following incubation, the reaction was initiated by adding the thiopeptide substrate solution in assay buffer (10 μL of 100 μM Ac-PLG-[2-mercapto-4-methyl-pentanoyl]-LG-OC2H5) into each well, and the absorbance at 412 nm continuously monitored for 10 min. 1 mM Ellman's reagent [5,5′-dithiobis (2-nitrobenzoic acid] in assay buffer (50 mM HEPES, 10 mM CaCl2, 0.05% Brij-35) was used as a colour developer in this assay system. The reaction velocity (V) was determined from the slope of the OD versus time (min) plot for each test inhibitor using the linear regression analysis (Graph Pad Prism, Version 2). Inhibition (%) was then calculated using the equation, [100]−[(V inhibitor/control)×100].

Assay [2] concerns collagenase I (MMP-1). Briefly: Collagenase activity assay, collagen thin film (collagen type II substrate). The settings on record: collagen thin film, collagen type II; peptide concentration not given. The protocol: Collagenase activity was assayed by collagen thin film method using collagen type II as substrate. IC50 values were graphically determined from the inhibition curves, constructed on the basis of the in vitro results of collagenase assays. Results are the mean±SD of 3 separate experiments done in triplicates. (•), P-NT.II; (□), PIP [59-67] dimer; (Δ), PIP [59-67} monomer; (∇), LY 315920.
Collagenase activity assay: Using collagen thin film as the substrate, a quantitative method was established to measure the enzymatic activity of the MMPs (principally collagenase). Collagen type II (Sigma) solution (4 μL, 3 mg/mL in 0.012 N HCl) was added to each well of 96-well plates and precipitated by slowly increasing the pH with 4 μL of H2O and 8 μL of 0.012 N NaOH. The plate was dried at 23° C. for 24 hr, washed with H2O, and dried again at 23° C., resulting in a thin film containing 12 μg of collagen that was tightly bound to the bottom of the wells. Enzymatic reactions of the collagenase I (with and without peptide inhibitors) against the collagen films were carried out in quadruplicate at 24° C. for 16 h. The digested portion of the film was washed away, while the undigested portion was fixed for 3 h with 0.1% Coomassie brilliant blue R in 10% acetic acid and 45% methanol, and the wells washed and dried.

The target of assay [3] is T2, purified human synovial sPLA2 (human Type IIA sPLA2) (Homo sapiens, UniProt P14555).
T2 construct: purchased Cayman Chemicals, USA
T2 sequence (P14555 21-144): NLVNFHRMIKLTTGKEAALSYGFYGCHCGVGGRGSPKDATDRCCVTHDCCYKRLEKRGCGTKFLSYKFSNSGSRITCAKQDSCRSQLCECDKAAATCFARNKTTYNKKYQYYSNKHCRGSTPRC
Nature of the assay: sPLA2 inhibition, 3H-arachidonate-labelled E. coli membrane assay. The settings on record: for inhibition at 5 µM: read-out: % Inhibition (mean ± SD).
Experimental: In brief, [^3H] arachidonate-labeled E. coli membranes (0.005 mCi/mL; 5.8 μCi/μmol, NEN) were used as substrate, and 100 mM Tris-HCl—25 mM CaCl2, pH 7.5 solution as an assay buffer. The reaction mixture contained 20 μL of substrate, 0.85 pmole of purified human synovial sPLA2 (human Type IIA sPLA2, Cayman Chemicals, USA), and an increasing concentrations of the family of synthetic peptides derived from the sequence of PIP. The final volume of the reaction mixture was adjusted to 250 μL with an assay buffer. After incubation of the mixture (37° C., 1 h) and termination of the reaction with 750 μL of chilled PBS containing 1% BSA, microfuge tubes containing the samples were centrifuged (10,000 g at 4° C. for 15 min), and 500 μL aliquots of the supernatant taken to measure the amount of [^3H]-labeled arachidonate released from the E. coli membrane using liquid scintillation counting (Multipurpose Scintillation Counter LS 6500; Beckman, USA). As controls, sPLA2 was pre-incubated with the assay buffer alone. All samples, including controls, were performed in triplicate and plotted as the percentage inhibition relative to negative controls.
A sigmoid dose response curve was generated to allow calculation of the IC50 values. All samples were performed in triplicate. Results were analyzed by nonlinear regression with GraphPad Prism (version 2.01) and expressed as the percentage of inhibition relative to control values.

[4] abbreviates: fixed peptide concentration (5 μM), 3H-labelled E. coli membrane assay.

Where a SMILES comes first, the peptide text is derived from it.

Regarding `CC[C@H](C)[C@H](NC(=O)[C@H](CC(=O)O)NC(=O)[C@@H](N)C(C)C)C(=O)N[C@@H](Cc1cnc[nH]1)C(=O)N[C@H](C(=O)N[C@@H](Cc1c[nH]c2ccccc12)C(=O)N[C@@H](CC(=O)O)C(=O)NCC(=O)N[C@H](C(=O)N[C@H](C(=O)N[C@@H](CC(=O)O)C(=O)N[C@H](C(=O)N[C@@H](Cc1cnc[nH]1)C(=O)N[C@H](C(=O)N[C@@H](Cc1c[nH]c2ccccc12)C(=O)N[C@@H](CC(=O)O)C(=O)NCC(=O)N[C@H](C(=O)O)C(C)C)C(C)C)[C@@H](C)CC)C(C)C)C(C)C)C(C)C` [PIP [59-67] dimer] (H-VDIHVWDGVVDIHVWDGV-OH), the IC50 in assay [1] is 902 nM.

Consider `CC[C@H](C)[C@H](NC(=O)[C@H](CC(=O)O)NC(=O)[C@@H](NC(=O)[C@@H](N)CCCNC(=N)N)C(C)C)C(=O)N[C@@H](Cc1c[nH]cn1)C(=O)N[C@H](C(=O)N[C@@H](Cc1c[nH]c2ccccc12)C(=O)N[C@@H](CC(=O)O)C(=O)NCC(=O)N[C@H](C(=O)O)C(C)C)C(C)C` [PIP [58-67]] (H-RVDIHVWDGV-OH), for which, in assay [2], the “Collagenase (% Inhibition)” value is given as 29.4 ± 6.0%.

Consider `CC[C@H](C)[C@H](NC(=O)[C@H](Cc1ccc(O)cc1)NC(=O)[C@@H](NC(=O)CNC(=O)[C@H](CC(=O)O)NC(=O)[C@H](Cc1c[nH]c2ccccc12)NC(=O)[C@@H](NC(=O)[C@H](Cc1cnc[nH]1)NC(=O)[C@@H](NC(=O)[C@H](CC(=O)O)NC(=O)[C@@H](NC(=O)[C@H](CCCNC(=N)N)NC(=O)CNC(=O)[C@@H](N)CC(C)C)C(C)C)[C@@H](C)CC)C(C)C)C(C)C)C(=O)N[C@@H](CCCNC(=N)N)C(=O)NCC(=O)N[C@@H](CCCNC(=N)N)C(=O)O` [P-NT.II] (H-LGRVDIHVWDGVYIRGR-OH), for which the IC50 in assay [1] is 1550 nM.

For the molecule “LGRVDIHVWDGVYI [PIP [56-69], P-NT.II analogue]”, the “Collagenase (% Inhibition)” value in assay [2] was found to be 59.8 ± 6.2%.

Turning to `CC[C@H](C)[C@H](NC(=O)[C@H](CCC(=O)O)NC(=O)[C@@H](N)C(C)C)C(=O)N[C@@H](Cc1c[nH]cn1)C(=O)N[C@H](C(=O)N[C@@H](Cc1c[nH]c2ccccc12)C(=O)N[C@@H](CCC(=O)O)C(=O)NCC(=O)N[C@H](C(=O)O)C(C)C)C(C)C` [D60,65E-PIP [59-67]] (H-VEIHVWEGV-OH; N-terminus and C-terminus assumed), the “Collagenase (% Inhibition)” value in assay [2] stood at 5.4 ± 1.8%. Moreover, the inhibition at 5 µM in assay [3] (setting [4]) worked out at 61.4 ± 4.32%.

With VDIHVW (βD) GV [β-Asp65-PIP [59-67]], the “% Inhibition (mean ± SD)” value in assay [3] (setting [4]) amounted to 49.71 ± 3.01%.

For the molecule `CC[C@H](C)[C@H](NC(=O)[C@H](CC(=O)O)NC(=O)[C@@H](NC(=O)[C@H](CCCNC(=N)N)NC(=O)CN)C(C)C)C(=O)N[C@@H](Cc1c[nH]cn1)C(=O)N[C@H](C(=O)N[C@@H](Cc1c[nH]c2ccccc12)C(=O)N[C@@H](CC(=O)O)C(=O)NCC(=O)N[C@H](C(=O)NCC(=O)N[C@@H](CCCNC(=N)N)C(=O)N[C@H](C(=O)N[C@@H](CC(=O)O)C(=O)N[C@H](C(=O)N[C@@H](Cc1c[nH]cn1)C(=O)N[C@H](C(=O)N[C@@H](Cc1c[nH]c2ccccc12)C(=O)N[C@@H](CC(=O)O)C(=O)NCC(=O)N[C@H](C(=O)O)C(C)C)C(C)C)[C@@H](C)CC)C(C)C)C(C)C)C(C)C` [PIP [57-67] dimer] (H-GRVDIHVWDGVGRVDIHVWDGV-OH; N-terminus and C-terminus assumed), the IC50 in assay [3] came to 2.43 ± 0.76 µM; in assay [1], 970 nM. Also, the inhibition at 5 µM in assay [3] (setting [4]) came out at 76.4 ± 3.87%.

As to DIHVWDG [PIP [60-66], P-NT.II analogue], the “Collagenase (% Inhibition)” value in assay [2] stood at 4.7 ± 2.6%.

`CC[C@H](C)[C@H](NC(=O)[C@H](CCC(=O)O)NC(=O)[C@@H](N)C(C)C)C(=O)N[C@@H](Cc1c[nH]cn1)C(=O)N[C@H](C(=O)N[C@@H](Cc1c[nH]c2ccccc12)C(=O)N[C@@H](CCC(=O)O)C(=O)NCC(=O)N[C@H](C(=O)N[C@H](C(=O)N[C@@H](CCC(=O)O)C(=O)N[C@H](C(=O)N[C@@H](Cc1c[nH]cn1)C(=O)N[C@H](C(=O)N[C@@H](Cc1c[nH]c2ccccc12)C(=O)N[C@@H](CCC(=O)O)C(=O)NCC(=O)N[C@H](C(=O)O)C(C)C)C(C)C)[C@@H](C)CC)C(C)C)C(C)C)C(C)C` [D60,65E-PIP [59-67] dimer] (H-VEIHVWEGVVEIHVWEGV-OH; N-terminus and C-terminus assumed): the half-maximal inhibitory concentration (IC50) in assay [3] came to 4.23 ± 0.67 µM; in assay [1], 3740 nM. Besides, in assay [3] (setting [4]), the inhibition at 5 µM worked out at 68.5 ± 3.94%.

As to “GRVDIHVWDGVYIRGR [PIP [57-72], P-NT.II analogue]”, in assay [2], the “Collagenase (% Inhibition)” value stood at 39.8 ± 3.5%.

In the case of `CC[C@H](C)[C@H](NC(=O)[C@H](CC(=O)O)NC(=O)[C@@H](N)C(C)C)C(=O)N[C@@H](Cc1c[nH]cn1)C(=O)N[C@H](C(=O)N[C@@H](Cc1c[nH]c2ccccc12)C(=O)N[C@@H](C)C(=O)NCC(=O)N[C@H](C(=O)O)C(C)C)C(C)C` [D65A-PIP [59-67], VDIHVW (A) GV] (H-VDIHVWAGV-OH; N-terminus and C-terminus assumed), in assay [3] (setting [4]), the inhibition at 5 µM was found to be 48.5 ± 2.34%.

For the molecule “RVDIHVWDGVYIRGR [PIP [58-72], P-NT.II analogue]”, the “Collagenase (% Inhibition)” value in assay [2] was found to be 23.3 ± 2.9%.

For “LGRVDIHVWDGVYIR [PIP [56-70], P-NT.II analogue]”, the “Collagenase (% Inhibition)” value in assay [2] is given as 60.6 ± 4.5%.

For the molecule `CC[C@H](C)[C@H](NC(=O)[C@H](CC(=O)O)NC(=O)[C@@H](N)C(C)C)C(=O)N[C@@H](Cc1c[nH]cn1)C(=O)N[C@H](C(=O)N[C@@H](Cc1c[nH]c2ccccc12)C(=O)N[C@@H](CO)C(=O)NCC(=O)N[C@H](C(=O)O)C(C)C)C(C)C` [D655-PIP [59-67], VDIHVW (S) GV] (H-VDIHVWSGV-OH; N-terminus and C-terminus assumed), in assay [3] (setting [4]), the inhibition at 5 µM came out at 52.5 ± 1.08%.

For “VDIHVWDGVYIRGR [PIP [59-72], P-NT.II analogue]”, in assay [2], the “Collagenase (% Inhibition)” value was determined as 14.5 ± 2.4%.

Consider “LGRVDIHVWDGVY [PIP [56-68], P-NT.II analogue]”, for which the “Collagenase (% Inhibition)” value in assay [2] is reported as 61.6 ± 7.6%.

`CC[C@H](C)[C@H](NC(=O)[C@H](CC(=O)O)NC(=O)[C@@H](N)C(C)C)C(=O)N[C@@H](Cc1c[nH]cn1)C(=O)N[C@H](C(=O)N[C@@H](Cc1c[nH]c2ccccc12)C(=O)N[C@@H](CCC(=O)O)C(=O)NCC(=O)N[C@H](C(=O)O)C(C)C)C(C)C` [D65E-PIP [59-67], VDIHVW (E) GV] (H-VDIHVWEGV-OH; N-terminus and C-terminus assumed): the inhibition at 5 µM in assay [3] (setting [4]) came to 57.6 ± 3.22%.

With “LGRVDIHVWDGVYIRG [PIP [56-71], P-NT.II analogue]”, the “Collagenase (% Inhibition)” value in assay [2] was 62.8 ± 6.6%.

Take “GRVDIHVWDGV [PIP [57-67], P-NT.II analogue]”: the “Collagenase (% Inhibition)” value in assay [2] is listed as 65.1 ± 3.3%.
